For series [1], the target named is T1, GIM-1 (Pseudomonas aeruginosa, UniProt Q704V1). Description: Enzymatic metallo-β-lactamase assay on purified GIM-1. The class given is biochemical. As to conditions: for logIC50 GIM-1: log of IC50, ± SEM of logIC50; for IC50: purified enzyme 1 nM, nitrocefin 2 μM, pH 7.2, 25 °C. The protocol:
(§1) A few inhibitors were tested up to 1600 μM to ensure nearly complete inhibition. Solutions of 100 μL consisting of buffer, purified enzyme (1 nM for GIM-1 and VIM-2, 5 nM for NDM-1), inhibitor and reporter substrate nitrocefin (15 μM for VIM-2, 2 μM for GIM-1) or imipenem (30 μM for NDM-1) were incubated in triplicates on a 96 well plate for 5 min at 25 °C. Buffer solution consisted of 50 mM HEPES pH 7.2, 50 μM ZnSO4 and 0.4 mg/ml bovine serum albumine. Inhibitors were dissolved in DMSO but diluted to assure <2% DMSO in measured assay. Absorbance was measured at 482 nm (nitrocefin) and 300 nm (imipenem) on a SpectraMax M4 spectrophotometer. The initial velocity at each inhibitor concentration was analyzed in GraphPad Prism v9.3.1 and fitted to dose-response curves by non-linear regression (log [inhibitor] vs response) used to calculate IC50 (Supplementary Tables S2–5).

Series [2] is described as follows: Long term stability in buffer with 2.5% DMSO (LC-MS). The class given is physicochemical. As to conditions: 20 mM KPO4, 0.1 mM ZnCl2, pH 7.0 + 2.5% DMSO; LC-MS 254 nm. The source says:
Reagents, reactants, solvents and drying agents for synthesis, work-up and purification were purchased from commercial vendors (Sigma-Aldrich, VWR, Merck, Fluorochem, Thermo Fisher Scientific, Solveco), and if not stated otherwise they were used without further purification. Reactions and long term stability of the final compounds in buffer were monitored using LC-MS (Agilent 1260 Infinity II) equipped with an ESI-Q detector (Infinitylab LC-MSD) using Agilent InfinityLab Poroshell 120 C18 columns (2.7 μm, ϕ 2.1 mm L 50 mm or 2.7 μm, ϕ 4.6 mm L 50 mm). The intermediates were purified using VWR silica gel 60 (40–63 μm) with a Biotage Isolera One flash column chromatography instrument. The final products were purified with preparative RP-HPLC (VWR LaPrep P110) with single wavelength detection (254 nm), using a Kinetex C8 column (5 μm, 100 Å, ϕ 21.2 mm L 250 mm) and gradients of CH3CN/H2O + 0.1% formic acid as the mobile phase at a 10 mL/min flow rate. Analytical HPLC data were acquired on a VWR LaChrome ELITE system using an ACE3 C8 (3 μm, 300 Å, ϕ 3.0 mm L 100 mm) or a Kinetex C18 columns (5 μm, 100 Å, ϕ 3.0 mm L 150 mm). NMR spectra were recorded on a Varian Agilent MR400-DD2 400 MHz spectrometer equipped with a OneNMR probe, Bruker Avance Neo 500 MHz spectrometer equipped with a cryogenic TXO probe, or a Bruker Avance Neo 600 MHz spectrometer equipped with a TCI cryogenic probe. The chemical shifts are reported using the residual solvent signal as an indirect reference to TMS.
4. Long term stability of the final compounds in buffer with 2.5% DMSO
The long term stability of the final compounds in buffer (20 mM KPO4, 0.1 mM ZnCl2, pH 7.0 + 2.5% DMSO) were monitored using LC-MS (Agilent 1260 Infinity II) equipped with an ESI-Q detector (Infinitylab LC-MSD) using Agilent InfinityLab Poroshell 120 C18 column (2.7 μm, ϕ 4.6 mm L 50 mm) at 254 nm with a 7 min long gradient method (5% to 95% CH3CN) of CH3CN/H2O + 0.1% formic acid as the mobile phase at a 1.0 mL/min flow rate. The samples were measured right after dissolving them in buffer, and after 1 month of keeping the same samples dissolved in the same buffer. The main peaks (> 95%) and impurities with > 1% are […]
Figure S14. Compound 5a right after dissolving it in buffer.
Figure S15. Compound 5a kept in buffer for 1 month. […]

Series [3] deals with T2, 15N-labelled VIM-2 (Escherichia coli, UniProt Q5U7L7).
T2 construct: made in house
Description: 1H,15N-HSQC titration of VIM-2. The class given is binding. As to conditions: 10 equivalents of compound, 600 MHz, pH 7.0, 25 °C. As for the experimental part:
The ^1H, ^15N-HSQC spectra for the titration experiments were recorded on a Bruker Avance Neo 600 MHz spectrometer equipped with a 5 mm TCI cryogenic probe at 25 °C. The U-[^15N]-labeled VIM-2 was prepared in a buffer of 20 mM KPO4, 0.1 mM ZnCl2, at pH 7.0, containing 85% H2O/15% D2O at a concentration of 0.25 mM. The U-[^15N]-labeled NDM-1 was used in a buffer of 20 mM HEPES, 0.1 mM ZnCl2, at pH 7.0, containing 85% H2O/15% D2O at a concentration of 0.25 mM. The ligands 5d, 5g, 5i, 5j (for VIM-2 titrations) and 5 f (for NDM-1 titration) were dissolved in the same buffer as the corresponding enzymes. Spectra were recorded using solvent suppression, 1024 points in f1, 16 transients, 512 increments in f2 and a relaxation delay of 0.2 s. The titrations were carried out with 0, 0.25, 0.50, 1.00, 1.50, 2.25, 3.00, 4.00, 5.00, 7.00, 10.0 equivalents of the inhibitors.
Figure S47. Superimposition of the 1H,15N-HSQC spectrum (600 MHz, pH 7.0, 25 °C) of
VIM-2 in the absence (blue) and in the presence (green) of 10 molar equivalent of compound
5j. Buffer: 20 mM KPO4, 0.1 mM ZnCl2, with 15% D2O.
Chemical shift perturbation values (CSP, ΔδNH) were calculated as the weighted average of
the chemical shift changes in f1 (ΔδN) and f2 (ΔδH) dimensions using the following equation 8:
∆δ = √∆δ 2 + ( N ); R = 6.5
Figure S48. Linear regression of the chemical shift perturbations of compound 5g (IC50 =
12 μM) as a function of the chemical shift perturbations of compounds 5c (yellow circle), 5d
(grey square), 5i (green triangle) and 5j (blue circle) for VIM-2. The data of the studied […]

Series [4] in a line: MTT cytotoxicity assay. The class given is cell-based. As to conditions: human, HepG2 cells. As for the experimental part: Cytotoxic activity of the compounds was measured through the MTT colorimetric assay as previously described[60] using the Colorimetric (MTT) Kit for Cell Survival and Proliferation (Merck/Millipore; Darmstadt, Germany). HepG2 cells (human hepatocellular carcinoma cell line) were kept in penicillin/streptomycin-free medium overnight and then they were treated with the compounds for 24 h. Subsequently, the MTT reagent was added to the cells and after 3 h of incubation, MTT-derived formazan crystals were solubilized in acidified isopropanol (0.1 mL isopropanol with 0.04 N HCl). Absorbance was measured with multiscan spectrophotometer (Thermo Fisher Scientific) at 530 nm test and 630 nm reference wavelengths. Cell viability was expressed as the percentage of viable, untreated cells. CC50 values were determined with GraphPad Prism software (v9.3.1) and adjusted to dose-response curves by non-linear regression (Supplementary Table S7).
8. Cytotoxocity against HepG2 cells
Table S7. CC50 values and viability curves of metallo-β-lactamase inhibitors tested on HepG2 […]
cells. […]
range. Data are shown as % via bility values ± SEM (n=4). Calculations were done using […]
Inhibitors CC50 (μM) HepG2 […]
(Formazan colour is commonly taken as a measure of viable cells.)

In series [5] the target is T1, GIM-1. Description: Enzymatic metallo-β-lactamase assay on purified GIM-1. In kind it is biochemical. As to conditions: approximated from Dixon plots (1/v vs [I]) at one constant substrate concentration; ± SE; read-out: Estimated inhibition constant Ki GIM-1.
Series [6] deals with T3, VIM-2 (Escherichia coli, UniProt Q5U7L7). Description: Enzymatic metallo-β-lactamase assay on purified VIM-2. In kind it is biochemical. As to conditions: for Ki: approximated from Dixon plots (1/v vs [I]) at one constant substrate concentration, ± SE, read-out: Estimated inhibition constant Ki VIM-2; for logIC50 VIM-2: log of IC50, ± SEM of logIC50; for IC50: purified enzyme 1 nM, nitrocefin 15 μM, pH 7.2, 25 °C. As for the experimental part:
as §1

Series [7] addresses T4, NDM-1 (Klebsiella pneumoniae, UniProt C7C422). Nature of the series: Enzymatic metallo-β-lactamase assay on purified NDM-1. In kind it is biochemical. As to conditions: for Ki: approximated from Dixon plots (1/v vs [I]) at one constant substrate concentration, ± SE, read-out: Estimated inhibition constant Ki NDM-1; for logIC50 NDM-1: log of IC50, ± SEM of logIC50; for IC50: purified enzyme 5 nM, imipenem 30 μM, pH 7.2, 25 °C. The protocol: as §1

For series [8], the target named is T3, VIM-2. As to conditions: cited from earlier work.
For series [9] the following is noted: read-out: Kd, affinity to zinc ions; cited from earlier work.
Series [10] deals with T4, NDM-1. As to conditions: read-out: IC50 against NDM-1; cited from earlier work.
The mark [11] stands for this setting: HepG2, MTT, read-out: CC50 (in viability curve).
Where [12] appears, read: MTT, 0.0025 mM - 1mM concentration range, read-out: Cytotoxicity CC50 HepG2.

SMILES strings stand for the structures. Read-outs that look alike come from different tables or passages of the source.

As usually defined, the IC50 is the concentration needed to halve the response being measured. In general, CC50 refers to the concentration giving 50% cytotoxicity. One may read the Ki as the dissociation constant of the complex between target and ligand, obtained from inhibition or displacement. What is called Kd is the equilibrium constant for the complex coming apart.

T1 sequence (Q704V1 entry or part of it): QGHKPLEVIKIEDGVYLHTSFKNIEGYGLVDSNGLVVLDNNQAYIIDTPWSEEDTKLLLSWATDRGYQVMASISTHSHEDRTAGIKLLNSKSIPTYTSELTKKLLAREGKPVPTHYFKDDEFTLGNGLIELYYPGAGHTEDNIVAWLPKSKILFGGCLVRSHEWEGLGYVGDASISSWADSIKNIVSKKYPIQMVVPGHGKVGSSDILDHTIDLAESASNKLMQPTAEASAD
T4 sequence (C7C422 29-270, looked up, species assumed): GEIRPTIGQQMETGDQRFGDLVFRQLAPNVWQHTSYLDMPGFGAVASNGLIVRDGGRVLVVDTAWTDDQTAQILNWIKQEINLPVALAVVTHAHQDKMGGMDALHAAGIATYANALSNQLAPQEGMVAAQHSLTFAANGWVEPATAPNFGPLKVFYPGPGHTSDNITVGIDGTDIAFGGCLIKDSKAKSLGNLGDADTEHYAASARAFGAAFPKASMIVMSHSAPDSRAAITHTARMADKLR

As for `O=C(NC(c1ccccc1O)P(=O)(O)O)c1cc2ccccc2s1` (stereo not drawn) [5c], in series [1], the “logIC50 GIM-1” value is 2.01 ± 0.09 μM and it took 101 µM to reach half-maximal inhibition (IC50). For the same compound, in series [2], the “main peak Area% kept in buffer for 1 month” value (shortened to “main peak Area% kept”) was determined as 97.59% and the “main peak Area% right after dissolving in buffer” value (shortened to “main peak Area% right”) was determined as 97.20%. For the same compound, the “Mean chemical shift perturbation, VIM-2” value in series [3] stood at 0.05 ppm. In addition, in series [4] (setting [11]), the CC50 at 24 h amounted to 2900 µM. Further, in series [4] (setting [12]), the CC50 at 24 h came out at 2930 µM. Further, the Ki in series [5] is 102 ± 10 µM. In addition, in series [6], the Ki was 71 ± 6 µM, the “logIC50 VIM-2” value worked out at 2.01 ± 0.05 μM and it took 103 µM to reach half-maximal inhibition (IC50).

In the case of `O=C(NC(c1ccccc1O)P(=O)(O)O)c1csc2ccccc12` (stereo not drawn) [5d], in [1], the “logIC50 GIM-1” value came out at 1.01 ± 0.19 μM and half-maximal inhibition (IC50) required 10 µM. Moreover, in series [2], the “main peak Area% kept” value is 97.15% and the “main peak Area% right” value is recorded as 97.92%. Also, in series [3], the “Mean chemical shift perturbation, VIM-2” value stood at 0.04 ppm. Besides, in series [4] (setting [11]), the CC50 at 24 h was determined as 4400 µM. Besides, the CC50 at 24 h in series [4] (setting [12]) amounted to 4440 µM. Also, the Ki in series [5] is 64 ± 13 µM. In addition, in series [6], the Ki was 31 ± 5 µM, the “logIC50 VIM-2” value turned out to be 1.33 ± 0.03 μM and the IC50 amounted to 21 µM.

In the case of `O=C(Cc1cccs1)NC(c1ccccc1O)P(=O)(O)O` (stereo not drawn) [5i], in series [7], the Ki is 1070 ± 360 µM, the “logIC50 NDM-1” value was 1.94 ± 0.08 log10(IC50/μM) and half-maximal inhibition (IC50) required 87 µM. For the same compound, in series [1], the “logIC50 GIM-1” value amounted to 2.28 ± 0.52 μM and it took 189 µM to reach half-maximal inhibition (IC50). In addition, in [2], the “main peak Area% kept” value was found to be 97.58% and the “main peak Area% right” value was determined as 96.45%. Moreover, the “Mean chemical shift perturbation, VIM-2” value in series [3] is recorded as 0.04 ppm. Moreover, the cytotoxic concentration (CC50) at 24 h in series [4] (setting [11]) turned out to be 1500 µM. In addition, the CC50 at 24 h in series [4] (setting [12]) was 1490 µM. In series [5], the Ki is 348 ± 28 µM. Further, in [6], the Ki is 76 ± 8 µM, the “logIC50 VIM-2” value came out at 1.58 ± 0.08 μM and it took 38 µM to reach half-maximal inhibition (IC50).

As for `O=C(Cc1ccsc1)NC(c1ccccc1O)P(=O)(O)O` (stereo not drawn) [5j], in [7], the Ki is 196 ± 13 µM, the “logIC50 NDM-1” value is on record as 2.37 ± 0.07 log10(IC50/μM) and the IC50 stood at 232 µM. In series [1], the “logIC50 GIM-1” value is listed as 2.01 ± 0.06 μM and the IC50 was determined as 103 µM. In addition, in series [2], the “main peak Area% kept” value was 96.88% and the “main peak Area% right” value amounted to 95.28%. Besides, the “Mean chemical shift perturbation, VIM-2” value in [3] is listed as 0.04 ppm. For the same compound, in series [4] (setting [11]), the CC50 at 24 h was determined as 4000 µM. Moreover, the CC50 at 24 h in series [4] (setting [12]) worked out at 3970 µM. Also, in series [6], the inhibitory constant (Ki) was 88 ± 16 µM, the “logIC50 VIM-2” value came to 1.57 ± 0.03 μM and the IC50 came out at 37 µM.

Consider `O=C(O)CN(CC(=O)O)CP(=O)(O)O` [N-(phosphonomethyl)-iminodiacetic acid], for which the IC50 in series [8] (read-out: IC50 against VIM-2) was 0.68 µM; in series [10] it was 0.91 µM. Further, in [9], the Kd was 0.056 µM.

As for `NCCN[C@H]1CC[C@H](CC(=O)N[C@H]2Cc3cccc(C(=O)O)c3OB2O)CC1` [taniborbactam], the IC50 is 0.002 µM in [8] (Table S8, ref 35 (SI), read-out: IC50 VIM-2) and 0.04 µM in series [8] (read-out: IC50 for VIM-2).

Source of the values: PMC12009420, “Dynamically chiral phosphonic acid-type metallo-β-lactamase inhibitors” (Communications Chemistry, 2025).
